The target of series [1] is cGMP-specific 3',5'-cyclic phosphodiesterase (Homo sapiens, UniProt O76074). Description: Inhibition of human PDE5.
A short description of series [2]: Plasma protein binding in human assessed as unbound fraction. In kind it is ADME, cell-free.
The next series concerns the target Cytochrome P450 2C9 (Homo sapiens, UniProt P11712). Description: Inhibition of CYP2C9 (unknown origin). The class given is ADME.
Series [3] is described as follows: Half life in rat. The conditions noted are these: in vivo. The class given is ADME.
For another series, the target named is Cytochrome P450 3A4 (Homo sapiens, UniProt P08684). Description: Inhibition of CYP3A4 (unknown origin). The class given is ADME.
Series [4] can be described thus: Plasma clearance in rat. The class given is ADME.
The target in another series is Phosphodiesterase 4 (Homo sapiens, UniProt P27815+Q08499+Q07343+Q08493). Description: Inhibition of human PDE4. In kind it is protein assay.
Series [5] deals with Dual 3',5'-cyclic-AMP and -GMP phosphodiesterase 11A (Homo sapiens, UniProt Q9HCR9). Description: Inhibition of human PDE11.
The target in series [6] is High affinity cGMP-specific 3',5'-cyclic phosphodiesterase 9A (Homo sapiens, UniProt O76083). Briefly: Inhibition of human PDE9.
Series [7] can be described thus: Inhibition of human PDE3.
Series [8] concerns the target T1, PXR (nuclear receptor subfamily 1 group I member 2) (Homo sapiens, UniProt O75469).
T1 sequence (O75469 whole entry): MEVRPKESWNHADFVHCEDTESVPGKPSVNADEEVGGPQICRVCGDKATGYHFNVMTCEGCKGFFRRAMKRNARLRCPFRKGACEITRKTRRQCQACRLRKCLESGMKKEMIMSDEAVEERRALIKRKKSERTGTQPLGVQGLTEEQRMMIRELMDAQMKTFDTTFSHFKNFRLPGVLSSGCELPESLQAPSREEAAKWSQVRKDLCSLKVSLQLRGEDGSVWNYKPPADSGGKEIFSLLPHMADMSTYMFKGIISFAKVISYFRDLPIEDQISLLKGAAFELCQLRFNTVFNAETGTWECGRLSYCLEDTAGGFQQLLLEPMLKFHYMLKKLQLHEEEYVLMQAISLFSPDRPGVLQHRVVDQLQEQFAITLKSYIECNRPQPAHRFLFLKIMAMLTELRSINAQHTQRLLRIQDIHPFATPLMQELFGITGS
Description: Inhibition of human PXR at 10 uM.

A further series has as its target Phosphodiesterase 6. Description: Inhibition of human PDE6. In kind it is protein assay.
The nature of series [9]: Plasma protein binding in rat assessed as unbound fraction. In kind it is ADME, cell-free.
Series [10] in a line: Kinetic solubility of compound in FaSSIF. In kind it is physicochemical. The conditions noted are these: read-out: Kinetic_solubility.
Series [11] is described as follows: Inhibition of human PDE8.
Series [12] in a line: Kinetic solubility of compound at pH 7. The conditions noted are these: buffer, read-out: Kinetic_solubility. The class given is physicochemical.
The species entered for a further series is Homo sapiens. Description: Inhibition of Ion channel (unknown origin).
The next series addresses Phosphodiesterase 7 (Homo sapiens, UniProt Q13946+Q9NP56). Briefly: Inhibition of human PDE7. In kind it is protein assay.
A short description of series [13]: Plasma protein binding in rhesus monkey assessed as unbound fraction. The class given is ADME, cell-free, Macaca mulatta.
Series [14] can be described thus: Mean residence time in rat. In kind it is ADME. The conditions noted are these: in vivo.
Series [15] in a line: Inhibition of human PDE1.
Series [16] concerns the target cAMP and cAMP-inhibited cGMP 3',5'-cyclic phosphodiesterase 10A (Homo sapiens, UniProt Q9Y233). Briefly: Inhibition of human PDE10.
Another series has as its target Cytochrome P450 2D6 (Homo sapiens, UniProt P10635). Briefly: Inhibition of CYP2D6 (unknown origin). The class given is ADME.
Series [17] can be described thus: Kinetic solubility of compound at pH 2. In kind it is physicochemical. The conditions noted are these: buffer, read-out: Kinetic_solubility.

The text below walks through data of ChEMBL document CHEMBL4834444, “Discovery of novel N-1 substituted pyrazolopyrimidinones as potent, selective PDE2 inhibitors” (Bioorg Med Chem Lett, 2021).

In brackets after ≈: the same amount, converted by molar mass.

Chain of High affinity cGMP-specific 3',5'-cyclic phosphodiesterase 9A (O76083 whole entry): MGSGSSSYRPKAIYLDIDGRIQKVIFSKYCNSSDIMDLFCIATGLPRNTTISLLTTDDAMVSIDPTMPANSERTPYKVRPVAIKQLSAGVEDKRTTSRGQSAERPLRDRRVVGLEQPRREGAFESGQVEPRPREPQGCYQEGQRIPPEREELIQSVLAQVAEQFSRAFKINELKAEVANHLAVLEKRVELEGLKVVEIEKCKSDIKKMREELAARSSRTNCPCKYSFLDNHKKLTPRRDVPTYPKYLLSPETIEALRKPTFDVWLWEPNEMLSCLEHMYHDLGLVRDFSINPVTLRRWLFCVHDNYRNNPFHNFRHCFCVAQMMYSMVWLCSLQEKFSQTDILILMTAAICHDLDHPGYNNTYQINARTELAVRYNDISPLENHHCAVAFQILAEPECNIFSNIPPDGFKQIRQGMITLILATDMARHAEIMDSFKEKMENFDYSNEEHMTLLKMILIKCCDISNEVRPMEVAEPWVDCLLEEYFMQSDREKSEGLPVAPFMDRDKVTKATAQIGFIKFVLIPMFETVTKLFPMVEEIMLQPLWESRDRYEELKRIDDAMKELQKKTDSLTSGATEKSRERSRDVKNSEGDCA
Chain of Dual 3',5'-cyclic-AMP and -GMP phosphodiesterase 11A (Q9HCR9 whole entry): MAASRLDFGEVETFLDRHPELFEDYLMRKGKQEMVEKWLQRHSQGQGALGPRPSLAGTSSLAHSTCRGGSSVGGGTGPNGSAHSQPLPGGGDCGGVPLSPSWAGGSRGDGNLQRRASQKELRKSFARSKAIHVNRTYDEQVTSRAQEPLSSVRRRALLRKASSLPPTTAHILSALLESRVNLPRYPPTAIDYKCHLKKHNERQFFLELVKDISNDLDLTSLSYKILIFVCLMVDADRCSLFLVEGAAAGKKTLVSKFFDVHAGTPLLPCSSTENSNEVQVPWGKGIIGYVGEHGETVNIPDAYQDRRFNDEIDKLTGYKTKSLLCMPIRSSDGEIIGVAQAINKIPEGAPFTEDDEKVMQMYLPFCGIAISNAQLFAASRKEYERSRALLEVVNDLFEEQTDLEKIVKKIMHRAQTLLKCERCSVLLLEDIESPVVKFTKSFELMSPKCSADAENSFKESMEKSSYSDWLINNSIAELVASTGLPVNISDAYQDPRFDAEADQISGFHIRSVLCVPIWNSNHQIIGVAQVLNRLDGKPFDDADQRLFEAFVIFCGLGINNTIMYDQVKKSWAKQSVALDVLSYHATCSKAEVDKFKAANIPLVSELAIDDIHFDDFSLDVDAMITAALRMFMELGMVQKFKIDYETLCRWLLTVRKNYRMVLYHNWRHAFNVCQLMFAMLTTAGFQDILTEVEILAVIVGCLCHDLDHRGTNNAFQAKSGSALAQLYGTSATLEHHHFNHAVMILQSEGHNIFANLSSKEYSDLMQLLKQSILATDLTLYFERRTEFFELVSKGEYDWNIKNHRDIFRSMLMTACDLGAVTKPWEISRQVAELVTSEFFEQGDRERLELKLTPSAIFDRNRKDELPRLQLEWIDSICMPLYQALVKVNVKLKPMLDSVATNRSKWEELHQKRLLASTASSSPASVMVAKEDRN
Chain of Cytochrome P450 3A4 (P08684 whole entry): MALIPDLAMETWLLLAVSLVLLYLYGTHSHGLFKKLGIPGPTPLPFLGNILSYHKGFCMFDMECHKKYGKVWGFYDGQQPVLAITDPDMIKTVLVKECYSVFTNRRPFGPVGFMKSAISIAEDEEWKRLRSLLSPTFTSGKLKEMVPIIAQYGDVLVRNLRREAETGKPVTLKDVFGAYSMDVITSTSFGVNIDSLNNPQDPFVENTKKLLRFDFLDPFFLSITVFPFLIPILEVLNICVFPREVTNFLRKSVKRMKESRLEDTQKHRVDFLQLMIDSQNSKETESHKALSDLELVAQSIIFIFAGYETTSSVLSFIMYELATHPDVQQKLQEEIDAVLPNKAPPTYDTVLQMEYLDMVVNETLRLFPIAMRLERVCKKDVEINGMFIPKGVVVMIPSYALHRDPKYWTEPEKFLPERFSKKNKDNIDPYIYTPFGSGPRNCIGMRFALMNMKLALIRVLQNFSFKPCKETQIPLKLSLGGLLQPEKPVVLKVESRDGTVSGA
Chain of Cytochrome P450 2C9 (P11712 whole entry): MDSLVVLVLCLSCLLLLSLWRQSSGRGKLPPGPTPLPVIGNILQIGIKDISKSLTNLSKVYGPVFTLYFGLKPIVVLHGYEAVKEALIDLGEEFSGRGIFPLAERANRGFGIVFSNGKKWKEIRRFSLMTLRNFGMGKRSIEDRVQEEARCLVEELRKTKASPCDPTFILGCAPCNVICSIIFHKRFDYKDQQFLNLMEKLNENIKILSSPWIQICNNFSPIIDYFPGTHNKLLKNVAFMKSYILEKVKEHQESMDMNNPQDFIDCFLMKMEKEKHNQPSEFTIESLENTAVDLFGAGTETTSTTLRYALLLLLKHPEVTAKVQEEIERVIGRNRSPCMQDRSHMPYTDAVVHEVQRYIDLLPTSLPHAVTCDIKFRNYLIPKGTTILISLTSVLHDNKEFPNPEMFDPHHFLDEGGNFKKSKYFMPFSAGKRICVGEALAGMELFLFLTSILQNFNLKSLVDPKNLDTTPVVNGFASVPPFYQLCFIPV
Chain of cAMP and cAMP-inhibited cGMP 3',5'-cyclic phosphodiesterase 10A (Q9Y233 whole entry): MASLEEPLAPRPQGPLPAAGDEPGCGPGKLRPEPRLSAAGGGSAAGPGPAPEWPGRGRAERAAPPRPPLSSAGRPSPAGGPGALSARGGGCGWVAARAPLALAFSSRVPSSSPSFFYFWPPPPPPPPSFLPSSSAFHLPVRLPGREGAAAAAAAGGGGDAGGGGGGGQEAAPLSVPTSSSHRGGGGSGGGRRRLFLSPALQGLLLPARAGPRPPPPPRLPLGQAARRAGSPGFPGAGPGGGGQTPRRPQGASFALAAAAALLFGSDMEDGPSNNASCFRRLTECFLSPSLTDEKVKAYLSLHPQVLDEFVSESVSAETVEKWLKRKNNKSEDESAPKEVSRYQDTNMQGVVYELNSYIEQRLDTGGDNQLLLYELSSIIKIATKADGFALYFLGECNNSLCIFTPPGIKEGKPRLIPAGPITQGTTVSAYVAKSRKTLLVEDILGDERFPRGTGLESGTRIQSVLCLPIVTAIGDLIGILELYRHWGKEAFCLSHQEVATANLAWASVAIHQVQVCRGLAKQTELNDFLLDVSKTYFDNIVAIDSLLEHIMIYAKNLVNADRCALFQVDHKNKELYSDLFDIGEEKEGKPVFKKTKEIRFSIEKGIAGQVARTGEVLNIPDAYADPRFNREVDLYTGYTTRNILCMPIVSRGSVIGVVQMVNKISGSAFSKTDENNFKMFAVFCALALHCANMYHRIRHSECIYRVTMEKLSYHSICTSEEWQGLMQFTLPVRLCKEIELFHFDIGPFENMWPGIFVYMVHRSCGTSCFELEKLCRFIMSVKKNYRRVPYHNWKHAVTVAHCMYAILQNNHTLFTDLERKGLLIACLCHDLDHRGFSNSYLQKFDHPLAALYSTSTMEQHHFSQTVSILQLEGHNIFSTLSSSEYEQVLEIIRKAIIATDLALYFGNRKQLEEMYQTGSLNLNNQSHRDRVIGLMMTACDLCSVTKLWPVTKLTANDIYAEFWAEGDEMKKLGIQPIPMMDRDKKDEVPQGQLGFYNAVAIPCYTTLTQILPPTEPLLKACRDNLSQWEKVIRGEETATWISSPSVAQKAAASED
Chain of Cytochrome P450 2D6 (P10635 whole entry): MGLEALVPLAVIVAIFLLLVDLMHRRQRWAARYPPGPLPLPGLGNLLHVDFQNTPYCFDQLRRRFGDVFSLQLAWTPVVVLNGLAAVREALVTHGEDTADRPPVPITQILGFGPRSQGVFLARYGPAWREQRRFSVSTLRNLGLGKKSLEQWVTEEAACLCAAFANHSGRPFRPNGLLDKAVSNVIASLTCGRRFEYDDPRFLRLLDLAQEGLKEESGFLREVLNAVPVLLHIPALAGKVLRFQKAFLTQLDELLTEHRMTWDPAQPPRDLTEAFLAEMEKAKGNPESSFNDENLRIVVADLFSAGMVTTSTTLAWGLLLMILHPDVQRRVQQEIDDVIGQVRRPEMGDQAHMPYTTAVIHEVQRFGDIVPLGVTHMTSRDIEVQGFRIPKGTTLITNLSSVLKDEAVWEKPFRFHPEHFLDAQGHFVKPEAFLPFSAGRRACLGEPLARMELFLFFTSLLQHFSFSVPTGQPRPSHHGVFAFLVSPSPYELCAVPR

For `Cc1nc2c([C@H](C)c3ccc(C(F)(F)F)c(F)c3)nn(CCO)c2c(=O)[nH]1`, the IC50 in series [1] is 23 µM; against Phosphodiesterase 4, 3.5 µM; in [5] it was 6.2 µM; in series [6] it was greater than 50 µM; in series [7] it was 1.8 µM; against Phosphodiesterase 6, 27 µM. Moreover, the IC50 is greater than 50 µM in [11], greater than 75 µM on Phosphodiesterase 7, greater than 60 µM in series [15] and 18 µM in [16]. Also, the fraction unbound turned out to be 0.03 in [2], 0.049 in series [9] and 0.035 in series [13]. Also, the INH on Cytochrome P450 2C9 was greater than 50 µM; at Cytochrome P450 3A4 it was 44 µM; in the series filed under Homo sapiens it was 9.6 µM; on Cytochrome P450 2D6, greater than 50 µM. In [3], this molecule gave a half-life of 3.1 h. In series [4], this molecule yielded a clearance of 1.44 L/h/kg. Besides, in [8], the inhibition at 10 µM worked out at 16%. Further, the solubility kinetic in series [10] was 148 µM (≈ 56.9 µg/mL); in [12], 115 µM (≈ 44.2 µg/mL); in series [17], 117 µM (≈ 45 µg/mL). In series [14], the MRT was determined as 2.5 h.

As for `Cc1nc2c([C@H](C)c3ccc(C(C)(C)C)cc3)nn(CCF)c2c(=O)[nH]1`, the concentration for half-maximal inhibition (IC50) in series [1] is 21 µM; against Phosphodiesterase 4, 3.3 µM; in series [5], 0.6 µM; in series [6] it was greater than 50 µM; in series [7], 5.7 µM; against Phosphodiesterase 6, 11 µM. Also, the IC50 in [11] was greater than 50 µM; against Phosphodiesterase 7 it was greater than 75 µM; in series [15] it was greater than 60 µM; in series [16], 5.8 µM. The fraction unbound in [2] was 0.009; in [9], 0.014; in series [13], 0.016. Also, the INH on Cytochrome P450 2C9 was greater than 50 µM; at Cytochrome P450 3A4 it was greater than 50 µM; in the series filed under Homo sapiens it was 17 µM; at Cytochrome P450 2D6, greater than 50 µM. The molecule also showed a half-life in [3] of 1.4 h. In series [4], this molecule had a clearance of 2.94 L/h/kg. This molecule returned an inhibition at 10 µM in series [8] of 45%. Moreover, the solubility kinetic in [10] was found to be 177 µM (≈ 63.1 µg/mL); in [12], 20 µM (≈ 7.13 µg/mL); in [17], 60 µM (≈ 21.4 µg/mL). The mean residence time MRT in series [14] came out at 0.8 h.
